Values quoted from earlier work as cited in article PMC10343355, “Finding the Right Solvent: A Novel Screening Protocol for Identifying Environmentally Friendly and Cost-Effective Options for Benzenesulfonamide” (Molecules, 2023).
Where two headings read alike, the source gives them in different places.

Set-up: method as in Li et al.
Conditions: ref Li et al., cited from earlier work

SMILES: NS(=O)(=O)c1ccccc1 [BSA, Benzenesulfonamide]
- log(x1)exp (Acetonitrile, 0.00 °C): -1.46
- log(x1)exp (Acetonitrile, 6.00 °C): -1.40
- log(x1)exp (Acetonitrile, 10.30 °C): -1.35
- log(x1)exp (Acetonitrile, 15.80 °C): -1.30
- log(x1)exp (Acetonitrile, 20.10 °C): -1.25
- log(x1)exp (Acetonitrile, 25.70 °C): -1.19
- log(x1)exp (Acetonitrile, 30.00 °C): -1.14
- log(x1)exp (Acetonitrile, 35.00 °C): -1.09
- log(x1)exp (Acetonitrile, 40.00 °C): -1.03
- log(x1)exp (Acetonitrile, 44.50 °C): -0.98
- log(x1)exp (Acetonitrile, 50.00 °C): -0.93
- log(x1)exp (Cyclopentanone, 0.00 °C): -0.86
- log(x1)exp (Cyclopentanone, 6.00 °C): -0.84
- log(x1)exp (Cyclopentanone, 10.70 °C): -0.82
- log(x1)exp (Cyclopentanone, 16.00 °C): -0.80
- log(x1)exp (Cyclopentanone, 20.60 °C): -0.78
- log(x1)exp (Cyclopentanone, 26.00 °C): -0.75
- log(x1)exp (Cyclopentanone, 30.60 °C): -0.73
- log(x1)exp (Cyclopentanone, 36.00 °C): -0.70
- log(x1)exp (Cyclopentanone, 40.20 °C): -0.68
- log(x1)exp (Dichloromethane, 0.00 °C): -2.87
- log(x1)exp (Dichloromethane, 6.00 °C): -2.76
- log(x1)exp (Dichloromethane, 10.30 °C): -2.67
- log(x1)exp (Dichloromethane, 15.80 °C): -2.56
- log(x1)exp (Dichloromethane, 20.10 °C): -2.48
- log(x1)exp (Dichloromethane, 25.70 °C): -2.37
- log(x1)exp (Dichloromethane, 30.00 °C): -2.31
- log(x1)exp (Dichloromethane, 35.00 °C): -2.22
- log(x1)exp (Dichloromethane, 39.00 °C): -2.16
- log(x1)exp (Ethyl Acetate, 0.00 °C): -1.49
- log(x1)exp (Ethyl Acetate, 6.00 °C): -1.44
- log(x1)exp (Ethyl Acetate, 10.30 °C): -1.41
- log(x1)exp (Ethyl Acetate, 15.80 °C): -1.37
- log(x1)exp (Ethyl Acetate, 20.10 °C): -1.33
- log(x1)exp (Ethyl Acetate, 25.70 °C): -1.29
- log(x1)exp (Ethyl Acetate, 30.00 °C): -1.25
- log(x1)exp (Ethyl Acetate, 35.00 °C): -1.21
- log(x1)exp (Ethyl Acetate, 40.00 °C): -1.17
- log(x1)exp (Ethyl Acetate, 44.50 °C): -1.13
- log(x1)exp (Ethyl Acetate, 50.00 °C): -1.09
- log(x1)exp (Ethyl Formate, 0.00 °C): -1.74
- log(x1)exp (Ethyl Formate, 6.00 °C): -1.69
- log(x1)exp (Ethyl Formate, 10.30 °C): -1.64
- log(x1)exp (Ethyl Formate, 15.80 °C): -1.59
- log(x1)exp (Ethyl Formate, 20.10 °C): -1.54
- log(x1)exp (Ethyl Formate, 25.70 °C): -1.48
- log(x1)exp (Ethyl Formate, 30.00 °C): -1.44
- log(x1)exp (Ethyl Formate, 35.00 °C): -1.38
- log(x1)exp (Ethyl Formate, 40.00 °C): -1.33
- log(x1)exp (Ethyl Formate, 44.50 °C): -1.28
- log(x1)exp (Ethyl Formate, 50.00 °C): -1.22
- log(x1)exp (Isobutanol, 0.00 °C): -2.41
- log(x1)exp (Isobutanol, 6.00 °C): -2.35
- log(x1)exp (Isopentanol, 0.00 °C): -2.38
- log(x1)exp (Isopentanol, 6.00 °C): -2.31
- log(x1)exp (Isopentanol, 10.70 °C): -2.25
- log(x1)exp (Isopentanol, 16.00 °C): -2.17
- log(x1)exp (Isopentanol, 20.60 °C): -2.09
- log(x1)exp (Isopentanol, 26.00 °C): -2.00
- log(x1)exp (Isopentanol, 30.60 °C): -1.92
- log(x1)exp (Isopentanol, 36.00 °C): -1.83
- log(x1)exp (Isopentanol, 40.20 °C): -1.76
- log(x1)exp (Isopentanol, 46.00 °C): -1.68
- log(x1)exp (Isopentanol, 51.30 °C): -1.60
- log(x1)exp (Methanol, 0.00 °C): -1.53
- log(x1)exp (Methanol, 6.00 °C): -1.49
- log(x1)exp (Methanol, 10.30 °C): -1.45
- log(x1)exp (Methanol, 15.80 °C): -1.39
- log(x1)exp (Methanol, 20.10 °C): -1.34
- log(x1)exp (Methanol, 25.70 °C): -1.27
- log(x1)exp (Methanol, 30.00 °C): -1.21
- log(x1)exp (Methanol, 40.00 °C): -1.09
- log(x1)exp (Methanol, 44.50 °C): -1.03
- log(x1)exp (Methanol, 50.00 °C): -0.97
- log(x1)exp (n-Butanol, 46.00 °C): -1.56
- log(x1)exp (n-Butanol, 51.30 °C): -1.49
- log(x1)exp (n-Pentanol, 36.00 °C): -1.78
- log(x1)exp (n-Pentanol, 40.20 °C): -1.73
- log(x1)exp (n-Pentanol, 46.00 °C): -1.63
- log(x1)exp (n-Pentanol, 51.30 °C): -1.56
- log(x1)exp (n-Propanol, 0.00 °C): -2.09
- log(x1)exp (n-Propanol, 6.00 °C): -2.04
- log(x1)exp (n-Propanol, 10.70 °C): -1.99
- log(x1)exp (n-Propanol, 16.00 °C): -1.91
- log(x1)exp (n-Propanol, 20.60 °C): -1.84
- log(x1)exp (n-Propanol, 26.00 °C): -1.76
- log(x1)exp (n-Propanol, 30.60 °C): -1.68
- log(x1)exp (n-Propanol, 36.00 °C): -1.60
- log(x1)exp (n-Propanol, 40.20 °C): -1.53
- log(x1)exp (n-Propanol, 46.00 °C): -1.44
- log(x1)exp (n-Propanol, 51.30 °C): -1.37
- log(x1)exp (solvent Isobutanol, T 10.70 °C, mole fraction solubility): -2.27
- log(x1)exp (solvent Isobutanol, T 16.00 °C, mole fraction solubility): -2.18
- log(x1)exp (solvent Isobutanol, T 20.60 °C, mole fraction solubility): -2.09
- log(x1)exp (solvent Isobutanol, T 26.00 °C, mole fraction solubility): -2.00
- log(x1)exp (solvent Isobutanol, T 30.60 °C, mole fraction solubility): -1.92
- log(x1)exp (solvent Isobutanol, T 36.00 °C, mole fraction solubility): -1.83
- log(x1)exp (solvent Isobutanol, T 40.20 °C, mole fraction solubility): -1.75
- log(x1)exp (solvent Isobutanol, T 46.00 °C, mole fraction solubility): -1.67
- log(x1)exp (solvent Isobutanol, T 51.30 °C, mole fraction solubility): -1.59
